The text below walks through data of patent publication US20230295115A1, “SUBSTITUTED ISOQUINOLINYLMETHYL AMIDES, ANALOGUES THEREOF, AND METHODS USING SAME” (priority 2020, published 2023).

This assay relates to HBV rcDNA. As to the kind of experiment: HepDE19 assay with bDNA quantitation of HBV rcDNA. The format is cell-based, hepatitis B virus (HBV). Conditions: HepDE19 cells, 7 day incubation, rcDNA measured by Quantigene 2.0 bDNA assay, top concentration 25 μM; read-out: DE-19bDNA EC50. The procedure: HepDE19 assay with bDNA quantitation of HBV rcDNA:
HepDE19 (50,000 cells/well) were plated in 96-well collagen-coated tissue-culture treated microtiter plates in DMEM/F12 medium supplemented with 10% fetal bovine serum, 1% penicillin-streptomycin and 1 μg/mL tetracycline and incubated in a humidified incubator at 37° C. and 5% CO2 overnight. Next day, the cells were switched to fresh medium without tetracycline and incubated for 4 hours at 37° C. and 5% CO2. […] The final DMSO concentration in the assay was 0.5%. The plates were incubated for 7 days in a humidified incubator at 37° C. and 5% CO2. Following a 7 day-incubation, the level of rcDNA present in the inhibitor-treated wells was measured using a Quantigene 2.0 bDNA assay kit (Affymetrix, Santa Clara, CA) with HBV specific custom probe set and manufacturers instructions. Concurrently, the effect of compounds on cell viability was assessed using replicate plates, plated at a density of 5,000 cells/well and incubated for 4 days, to determine the ATP content as a measure of cell viability using the cell-titer glo reagent (CTG; Promega Corporation, Madison, WI) as per manufacturer's instructions.
Take `CC(c1c[nH]c(=O)c2cc(F)c(F)cc12)N(C)C(=O)c1cc2cc(F)c(F)cc2[nH]1` (single isomer, unassigned) [Compound 15, N-(1-(6,7-Difluoro-1-oxo-1,2-dihydroisoquinolin-4-yl)ethyl)-5,6-difluoro-N-methyl-1H-indole-2-carboxamide]: the EC50 (usually the concentration giving half of the maximal effect) turned out to be 1.6 µM.
As for `CC(c1c[nH]c(=O)c2cc(F)c(F)cc12)N(C)C(=O)c1cc2cc(F)c(F)cc2[nH]1` (single isomer, unassigned) [Compound 16, N-(1-(6,7-Difluoro-1-oxo-1,2-dihydroisoquinolin-4-yl)ethyl)-5,6-difluoro-N-methyl-1H-indole-2-carboxamide], the EC50 was found to be 0.01 µM.
Consider `CC(c1c[nH]c(=O)c2cc(F)c(F)cc12)N(C)C(=O)c1cc2c(F)cc(F)cc2[nH]1` (single isomer, unassigned) [Compound 17, N-(1-(6,7-Difluoro-1-oxo-1,2-dihydroisoquinolin-4-yl)ethyl)-4,6-difluoro-N-methyl-1H-indole-2-carboxamide], for which the EC50 turned out to be 2.5 µM.
In the case of `CC(c1c[nH]c(=O)c2cc(F)c(F)cc12)N(C)C(=O)c1cc2c(F)cc(F)cc2[nH]1` (single isomer, unassigned) [Compound 18, N-(1-(6,7-Difluoro-1-oxo-1,2-dihydroisoquinolin-4-yl)ethyl)-4,6-difluoro-N-methyl-1H-indole-2-carboxamide], the EC50 came to 0.02 µM.
`CC(c1c[nH]c(=O)c2cc(F)c(F)cc12)N(C)C(=O)[C@@H]1Cc2ccccc2CN1` (single isomer, unassigned) [Compound 19]: the EC50 stood at 0.82 µM.
On to `CC(c1c[nH]c(=O)c2cc(F)c(F)cc12)N(C)C(=O)[C@@H]1Cc2ccccc2CN1` (single isomer, unassigned) [Compound 20], for which the EC50 was determined as 9.2 µM.
As for `CC(c1c[nH]c(=O)c2cc(F)c(F)cc12)N(C)C(=O)[C@H]1Cc2ccccc2N1` (single isomer, unassigned) [Compound 21], the EC50 was found to be 0.3 µM.
For the compound `CC(c1c[nH]c(=O)c2cc(F)c(F)cc12)N(C)C(=O)[C@H]1Cc2ccccc2N1` (single isomer, unassigned) [Compound 22], the EC50 amounted to 3.7 µM.
In the case of `CC(c1c[nH]c(=O)c2cc(F)c(F)cc12)N(C)C(=O)c1nc2ccccc2[nH]1` (single isomer, unassigned) [Compound 23, N-(1-(6,7-Difluoro-1-oxo-1,2-dihydroisoquinolin-4-yl)ethyl)-N-methyl-1H-benzo[d]imidazole-2-carboxamide], the EC50 was not below 25 µM.
Consider `CC(c1c[nH]c(=O)c2cc(F)c(F)cc12)N(C)C(=O)c1nc2ccccc2[nH]1` (single isomer, unassigned) [Compound 24, N-(1-(6,7-Difluoro-1-oxo-1,2-dihydroisoquinolin-4-yl)ethyl)-N-methyl-1H-benzo[d]imidazole-2-carboxamide], for which the EC50 was 0.76 µM.
The result for `CC(c1c[nH]c(=O)c2cc(F)c(F)cc12)N(C)C(=O)c1cc2ccccc2o1` (single isomer, unassigned) [Compound 25, N-(1-(6,7-Difluoro-1-oxo-1,2-dihydroisoquinolin-4-yl)ethyl)-N-methylbenzofuran-2-carboxamide] reads 17 µM.
Consider `CC(c1c[nH]c(=O)c2cc(F)c(F)cc12)N(C)C(=O)c1cc2ccccc2o1` (single isomer, unassigned) [Compound 26, N-(1-(6,7-Difluoro-1-oxo-1,2-dihydroisoquinolin-4-yl)ethyl)-N-methylbenzofuran-2-carboxamide], for which the EC50 came to 0.35 µM.
For `CC(c1c[nH]c(=O)c2cc(F)c(F)cc12)N(CCCO)C(=O)c1cc2ccccc2[nH]1` (single isomer, unassigned) [Compound 27, N-(1-(6,7-Difluoro-1-oxo-1,2-dihydroisoquinolin-4-yl)ethyl)-N-(3-hydroxypropyl)-1H-indole-2-carboxamide], the EC50 was found to be 2.9 µM.
